Values quoted from earlier work, collected in article PMC8541353, “A Novel Phenylpyrrolidine Derivative: Synthesis and Effect on Cognitive Functions in Rats with Experimental Ishemic Stroke” (Molecules, 2021).

Settings: cited from earlier work

Compound | Literature Report of BBB Permeability
NC(=O)CN1CC(O)CC1=O (centres unmarked) [Oxiracetam] | Low [20]
CC[C@@H](C(N)=O)N1C[C@H](C=C(F)F)CC1=O [Seletracetam] | Very good [19]
